Here are results for 25 compounds from US9000191B2, “Serotonin reuptake inhibitors” (Theravance Biopharma R&D IP, LLC, priority 2010, dated 2015).

Tested on in the first data set: not listed separately
The experiment in a line: Peripheral selectivity (Assay 4): free plasma versus free brain exposure after oral dosing. The class given is in vivo. Conditions: fed male Sprague-Dawley rats, 0.5-24 hours post-dose, unbound fractions by equilibrium dialysis. How it is done: Fed male Sprague-Dawley rats (n=1/timepoint) were dosed orally with a test compound. Blood (via cardiocentesis), cerebrospinal fluid (CSF) (via cisternae magna) and brain were collected from an animal at 0.5, 1, 2, 4, 8 and 24 hours post-dose. Total plasma, CSF and brain concentrations were determined by LC-MS/MS. The pharmacokinetic parameters were assessed by non-compartmental methods using WinNonlin (Version 5.3, Pharsight, Mountain View, Calif.). The unbound fraction in plasma and brain was determined by equilibrium dialysis. Free plasma and free brain concentrations were determined by multiplying the total concentration in plasma or brain by its respective unbound fraction. CSF was assumed to be unbound, due to the absence of protein. Peripheral selectivity was assessed by comparing the unbound exposures (Cmax and AUC) in free plasma versus CSF and/or free brain.
For `CS(=O)(=O)C[C@@H](Oc1ccc(C(F)(F)F)cc1)[C@H]1CCNC1` [Example 1, (S)-3-[(S)-2-Methanesulfonyl-1-(4-trifluoromethylphenoxy)ethyl]pyrrolidine], the “Free plasma AUC/Free brain AUC” value was above 70. In the case of `CS(=O)(=O)C[C@@H](Oc1ccc([N+](=O)[O-])cc1)[C@@H]1CCNC1` [Example 2-7, (R)-3-[(S)-2-Methanesulfonyl-1-(4-nitro-phenoxy)ethyl]pyrrolidine], the “Free plasma AUC/Free brain AUC” value is reported as above 20.

Consider `CS(=O)(=O)C[C@H](Oc1ccc([N+](=O)[O-])cc1)[C@@H]1CCNC1` [Example 2-8, (R)-3-[(R)-2-Methanesulfonyl-1-(4-nitro-phenoxy)ethyl]pyrrolidine], for which the “Free plasma AUC/Free brain AUC” value is reported as above 10.

Regarding `CS(=O)(=O)C[C@@H](Oc1ccc(C(F)(F)F)cn1)[C@@H]1CCNC1` [Example 3], the “Free plasma AUC/Free brain AUC” value was above 20.

In the next data set the target is T1, hSERT (Homo sapiens, UniProt P31645).
T1 construct: expressed in transfected cells; host or cells: HEK293 (stably transfected, G418 selection)
T1 sequence (P31645 whole entry): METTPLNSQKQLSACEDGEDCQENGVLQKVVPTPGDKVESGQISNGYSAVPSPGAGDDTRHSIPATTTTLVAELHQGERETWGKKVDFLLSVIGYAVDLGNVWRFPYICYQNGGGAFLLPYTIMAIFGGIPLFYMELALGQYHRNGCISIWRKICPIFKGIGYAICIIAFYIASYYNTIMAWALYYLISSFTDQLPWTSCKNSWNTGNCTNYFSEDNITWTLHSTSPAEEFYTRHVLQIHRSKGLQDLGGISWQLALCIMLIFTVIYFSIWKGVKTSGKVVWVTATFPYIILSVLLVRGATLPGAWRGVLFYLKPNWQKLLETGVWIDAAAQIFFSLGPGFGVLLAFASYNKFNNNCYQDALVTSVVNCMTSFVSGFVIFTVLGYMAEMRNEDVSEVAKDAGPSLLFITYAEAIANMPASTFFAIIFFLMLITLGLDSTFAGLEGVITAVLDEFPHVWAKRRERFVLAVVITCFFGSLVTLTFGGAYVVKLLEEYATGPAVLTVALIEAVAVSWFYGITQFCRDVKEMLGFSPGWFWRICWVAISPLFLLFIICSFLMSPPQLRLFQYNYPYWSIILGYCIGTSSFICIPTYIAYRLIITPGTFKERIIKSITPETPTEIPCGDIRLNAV
The data set can be described thus: hSERT neurotransmitter uptake assay. The class given is cell-based. Conditions: serotonin reuptake inhibition, HEK293-hSERT cells; read-out: SERT pIC50 (converted). How it is done: Neurotransmitter uptake assays were used to measure inhibition of ^3H-serotonin (^3H-5-HT) uptake into cells expressing hSERT in order to determine the pIC50 values of test compounds at the transporter, similar to the procedures described in Tsuruda et al. (2010) Journal of Pharmacological and Toxicological Methods 61(2):192-204.
HEK293 cells stably-transfected with human recombinant SERT (HEK293-hSERT) were grown in DMEM medium supplemented with 10% dialyzed fetal bovine serum, 100 μg/ml penicillin, 100 μg/ml streptomycin, 2 mM L-glutamine, and 250 μg/ml of the aminoglycoside antibiotic G418. Cells were incubated in a 5% CO2, humidified incubator at 37° C.
The neurotransmitter uptake assay was performed in a 96-well assay plate in a total volume of 100 μL assay buffer containing HEK293-hSERT cells (7500-10,000 cells/well; plated ˜2 hours prior to assay initiation. Neurotransmitter Transporter Uptake Assay dye (0.5 μM), and eleven different concentrations of compound ranging from 10 μM to […] was used. Non-specific uptake was determined in the presence of indatraline (2.5 μM). The final assay buffer was 12.5 mM Tris-HCl, 5 mM HEPES, 3 mM NaHCO3, 0.3 mM KH2PO4, 0.25 mM Na2HPO4, 130 mM NaCl, 5 mM KCl, 1 mM CaCl2, 0.4 mM MgCl2, 0.3 mM MgSO4, 4 mM D-glucose, 0.025% BSA, 0.1 mM ascorbic acid, pH 7.4.
In pre-incubation studies, test compound was added to cells for 30 minutes at 37° C. prior to the addition of fluorescent substrate. For determination of inhibitory potency, a 10-30 minute endpoint substrate accumulation was determined by fluorescence spectroscopy using a Safire (Tecan Group Ltd., Minnendorf, Switzerland) and analysis was performed as described in Tsuruda et al., supra. For real-time measurements, compounds were either preincubated (as above) or mixed with substrate prior to addition, and kinetic measurements, relative fluorescence units (RFU integrated over 0.5 ms), were made using a cycle time of 1 min.
Consider `CS(=O)(=O)C[C@@H](Oc1ccc(C(F)(F)F)cc1)[C@H]1CCNC1` [Example 1, (S)-3-[(S)-2-Methanesulfonyl-1-(4-trifluoromethylphenoxy)ethyl]pyrrolidine], for which the IC50 was at most 10 nM. Still for that read-out and setting: the result for `CS(=O)(=O)C[C@@H](Oc1ccc([N+](=O)[O-])cc1)[C@@H]1CCNC1` [Example 2-7, (R)-3-[(S)-2-Methanesulfonyl-1-(4-nitro-phenoxy)ethyl]pyrrolidine] reads at most 100 nM; that for `CS(=O)(=O)C[C@H](Oc1ccc([N+](=O)[O-])cc1)[C@@H]1CCNC1` [Example 2-8, (R)-3-[(R)-2-Methanesulfonyl-1-(4-nitro-phenoxy)ethyl]pyrrolidine], at most 100 nM. On the same count and under the same terms, to `CS(=O)(=O)C[C@@H](Oc1ccc(OC(F)(F)F)cc1)[C@@H]1CCNC1` [Example 2-11, (R)-3-[(S)-2-Methanesulfonyl-1-(4-trifluoromethoxyphenoxy)ethyl]pyrrolidine] belongs at most 10 nM; to `CCS(=O)(=O)C[C@@H](Oc1ccc(C(F)(F)F)cc1)[C@H]1CCNC1` [Example 2-12, (S)-3-[(S)-2-Ethanesulfonyl-1-(4-trifluoromethyl-phenoxy)ethyl]pyrrolidine], at most 10 nM. Same read-out and setting: the result for `CC(C)S(=O)(=O)C[C@@H](Oc1ccc(C(F)(F)F)cc1)[C@H]1CCNC1` [Example 2-13, (S)-3-[(S)-2-(Propane-2-sulfonyl)-1-(4-trifluoromethylphenoxy)ethyl]pyrrolidine] reads at most 10 nM; that for `CC(=O)NCCS(=O)(=O)C[C@@H](Oc1ccc(C(F)(F)F)cc1)[C@H]1CCNC1` [Example 2-14, N-{2-[(S)-2-(S)-Pyrrolidin-3-yl-2-(4-trifluoromethylphenoxy)ethanesulfonyl]-ethyl}-acetamide], at most 10 nM; that for `O=S(=O)(CCO)C[C@@H](Oc1ccc(C(F)(F)F)cc1)[C@H]1CCNC1` [Example 2-15, 2-[(S)-2-(S)-Pyrrolidin-3-yl-2-(4-trifluoromethylphenoxy)ethanesulfonyl]ethanol], at most 10 nM. Consider `COC(=O)CS(=O)(=O)C[C@@H](Oc1ccc(C(F)(F)F)cc1)[C@H]1CCNC1` [Example 2-16, [(S)-(S)-Pyrrolidin-3-yl-(4-trifluoromethylphenoxy)ethanesulfonyl]acetic acid methyl ester], for which the IC50 is at most 10 nM.

Consider `O=S(=O)(C[C@@H](Oc1ccc(C(F)(F)F)cc1)[C@H]1CCNC1)c1ccccc1` [Example 2-17, (S)-3-[(S)-2-Benzenesulfonyl-1-(4-trifluoromethylphenoxy)ethyl]pyrrolidine], for which the IC50 was at most 10 nM. In the case of `CC(=O)Nc1ccc(S(=O)(=O)C[C@@H](Oc2ccc(C(F)(F)F)cc2)[C@H]2CCNC2)cc1` [Example 2-18, N-{4-[(S)-2-(S)-Pyrrolidin-3-yl-2-(4-trifluoromethylphenoxy)ethanesulfonyl]-phenyl}-acetamide], the IC50 is at most 10 nM.

In the case of `O=S(=O)(C[C@@H](Oc1ccc(C(F)(F)F)cc1)[C@H]1CCNC1)c1ccncc1` [Example 2-19, 4-[(S)-2-(S)-Pyrrolidin-3-yl-2-(4-trifluoromethylphenoxy)ethanesulfonyl]pyridine], the IC50 is at most 100 nM. On the same count and under the same terms, the result for `CS(=O)(=O)C[C@@H](Oc1ccc(C(F)(F)F)c(C#N)c1)[C@H]1CCNC1` [Example 2-20, 5-((S)-2-Methanesulfonyl-1-(S)-pyrrolidin-3-ylethoxy)-2-trifluoromethyl-benzonitrile] reads at most 100 nM; that for `CS(=O)(=O)C[C@@H](Oc1ccc(Cl)c(C#N)c1)[C@H]1CCNC1` [Example 2-22, 2-Chloro-5-((S)-2-methanesulfonyl-1-(S)-pyrrolidin-3-ylethoxy)benzonitrile], at most 10 nM. On the same count and under the same terms, to `COc1cc([N+](=O)[O-])ccc1O[C@@H](CS(C)(=O)=O)[C@H]1CCNC1` [Example 2-25, (S)-3-[(R)-2-Methanesulfonyl-1-(2-methoxy-4-nitrophenoxy)ethyl]pyrrolidine] belongs at most 100 nM; to `COc1cc([N+](=O)[O-])ccc1O[C@H](CS(C)(=O)=O)[C@@H]1CCNC1` [Example 2-26, (R)-3-[(S)-2-Methanesulfonyl-1-(2-methoxy-4-nitrophenoxy)ethyl]pyrrolidine], at most 100 nM. For `COc1cc([N+](=O)[O-])ccc1O[C@@H](CS(C)(=O)=O)[C@@H]1CCNC1` [Example 2-27, (R)-3-[(R)-2-Methanesulfonyl-1-(2-methoxy-4-nitrophenoxy)ethyl]pyrrolidine], the IC50 is at most 100 nM. For `Cc1cc(Cl)ccc1O[C@@H](CS(C)(=O)=O)[C@H]1CCNC1` [Example 2-28, (S)-3-[(R)-1-(4-Chloro-2-methylphenoxy)-2-methanesulfonylethyl]pyrrolidine], the IC50 is at most 10 nM. Still for that read-out and setting: the result for `CS(=O)(=O)C[C@@H](Oc1ccc(C(F)(F)F)cn1)[C@@H]1CCNC1` [Example 3] reads at most 100 nM; that for `CS(=O)(=O)C[C@@H](Oc1ccc(Cl)cn1)[C@H]1CCNC1` [Example 4-1, 5-Chloro-2-((S)-2-methanesulfonyl-1-(S)-pyrrolidin-3-ylethoxy)pyridine], at most 100 nM; that for `CS(=O)(=O)C[C@@H](Oc1ccc(C(F)(F)F)cn1)[C@H]1CCNC1` [Example 4-3, 2-((S)-2-Methanesulfonyl-1-(S)-pyrrolidin-3-yl-ethoxy)-5-trifluoromethyl-pyridine], at most 10 nM. Still for that read-out and setting: to `CS(=O)(=O)C[C@@H](Oc1ccc(C(F)(F)F)nc1)[C@@H]1CCNC1` [Example 5] belongs at most 100 nM; to `CS(=O)(=O)C[C@@H](Oc1ccc(C(F)(F)F)nc1)[C@H]1CCNC1` [Example 6-2, 5-((S)-2-Methanesulfonyl-1-(S)-pyrrolidin-3-ylethoxy)-2-trifluoromethylpyridine], at most 100 nM; to `CS(=O)(=O)C[C@@H](Oc1ccc(Cl)nc1)[C@H]1CCNC1` [Example 6-3, 2-Chloro-5-((S)-2-methanesulfonyl-1-(S)-pyrrolidin-3-ylethoxy)pyridine], at most 100 nM.

For the compound `O=S(=O)(CCC(Oc1ccc(C(F)(F)F)cc1)[C@H]1CCNC1)c1ccccc1` (stereo partly drawn) [Example 7, (S)-3-[3-Benzenesulfonyl-1-(4-trifluoromethylphenoxy)propyl]pyrrolidine], the IC50 was at most 10 nM.
